Reference: paper PMC6019134, “1,2,6-Thiadiazinones as Novel Narrow Spectrum Calcium/Calmodulin-Dependent Protein Kinase Kinase 2 (CaMKK2) Inhibitors” (Molecules : A Journal of Synthetic Chemistry and Natural …, 2018)

What was measured:
Assay in all cases: DSF thermal shift, kinase panel
Assay type in all cases: binding
Settings in all cases: 10 μM compound
BRAFA = target: T1, BRAFA (Homo sapiens, UniProt P15056)
T1 construct: purchased in-house (home-made panel, SGC-style construct names)
Procedure, shortened: (§1)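 Read-out is melting temperature shift (dTm), derived by Boltzmann fitting of fluorescence melt curves and referenced to protein/dye with 0.2% DMSO. Kinase 1 µM, compound 10 µM, phosphate buffer pH 7.5 with NaCl and glycerol; ramp 25→95 °C at 0.05 °C/s.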

PHKG2A = target: T2, PHKG2A (Homo sapiens, UniProt P15735)
T2 construct: purchased in-house (home-made panel, SGC-style construct names)
T2 sequence (P15735 1-406): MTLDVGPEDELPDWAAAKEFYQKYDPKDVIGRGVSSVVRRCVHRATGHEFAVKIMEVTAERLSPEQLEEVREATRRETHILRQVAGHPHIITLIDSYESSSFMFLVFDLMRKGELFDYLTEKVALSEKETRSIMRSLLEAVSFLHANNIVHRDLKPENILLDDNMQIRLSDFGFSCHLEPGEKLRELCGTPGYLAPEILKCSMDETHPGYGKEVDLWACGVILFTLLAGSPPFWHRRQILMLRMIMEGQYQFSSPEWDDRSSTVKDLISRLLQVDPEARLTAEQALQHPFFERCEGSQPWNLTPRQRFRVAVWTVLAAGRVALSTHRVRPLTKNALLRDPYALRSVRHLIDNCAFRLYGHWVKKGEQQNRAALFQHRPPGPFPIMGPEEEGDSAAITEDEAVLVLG
Procedure, shortened: as §1

GAKA = target: T3, GAKA (Homo sapiens, UniProt O14976)
T3 construct: purchased in-house (home-made panel, SGC-style construct names)
T3 sequence (O14976 1-1311): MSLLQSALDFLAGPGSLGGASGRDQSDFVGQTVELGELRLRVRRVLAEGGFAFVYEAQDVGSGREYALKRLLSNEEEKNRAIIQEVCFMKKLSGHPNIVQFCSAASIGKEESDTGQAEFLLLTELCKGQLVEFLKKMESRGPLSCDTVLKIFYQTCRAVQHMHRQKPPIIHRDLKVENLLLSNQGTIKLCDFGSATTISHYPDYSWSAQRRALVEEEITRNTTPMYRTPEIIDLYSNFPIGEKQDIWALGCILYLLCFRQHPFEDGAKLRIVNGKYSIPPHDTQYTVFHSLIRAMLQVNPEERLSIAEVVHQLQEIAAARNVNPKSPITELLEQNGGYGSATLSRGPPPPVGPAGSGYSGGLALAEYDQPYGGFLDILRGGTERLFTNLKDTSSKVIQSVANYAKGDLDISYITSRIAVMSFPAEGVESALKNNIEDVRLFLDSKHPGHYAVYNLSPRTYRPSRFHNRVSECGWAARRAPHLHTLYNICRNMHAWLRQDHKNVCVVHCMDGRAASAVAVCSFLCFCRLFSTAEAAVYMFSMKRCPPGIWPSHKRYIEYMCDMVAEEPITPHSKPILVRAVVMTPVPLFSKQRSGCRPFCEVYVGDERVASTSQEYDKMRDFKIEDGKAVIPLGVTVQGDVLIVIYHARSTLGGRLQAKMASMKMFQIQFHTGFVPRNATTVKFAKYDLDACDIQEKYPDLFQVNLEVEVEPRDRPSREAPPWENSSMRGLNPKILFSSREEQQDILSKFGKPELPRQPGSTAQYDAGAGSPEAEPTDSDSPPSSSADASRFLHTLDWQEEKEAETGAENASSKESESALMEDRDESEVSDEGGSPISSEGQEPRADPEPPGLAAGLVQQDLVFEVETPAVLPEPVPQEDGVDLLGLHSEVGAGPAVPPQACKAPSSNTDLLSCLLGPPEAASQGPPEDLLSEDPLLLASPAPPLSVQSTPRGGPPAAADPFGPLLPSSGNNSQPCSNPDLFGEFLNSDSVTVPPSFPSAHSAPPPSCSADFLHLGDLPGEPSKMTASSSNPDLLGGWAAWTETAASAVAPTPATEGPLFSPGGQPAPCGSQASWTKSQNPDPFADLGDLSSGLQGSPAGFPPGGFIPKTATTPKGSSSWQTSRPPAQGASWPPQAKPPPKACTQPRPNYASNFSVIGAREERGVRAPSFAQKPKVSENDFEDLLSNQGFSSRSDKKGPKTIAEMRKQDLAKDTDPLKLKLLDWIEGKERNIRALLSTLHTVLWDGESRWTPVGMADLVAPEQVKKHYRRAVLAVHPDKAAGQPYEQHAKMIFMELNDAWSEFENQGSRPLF
Procedure, shortened: as §1

STK10A = target: T4, STK10A (Homo sapiens, UniProt O94804)
T4 construct: TEV-cleavable (cleaved yes); made in house; host or cells: E. coli
Procedure, shortened: as §1

T1 sequence (P15056 whole entry): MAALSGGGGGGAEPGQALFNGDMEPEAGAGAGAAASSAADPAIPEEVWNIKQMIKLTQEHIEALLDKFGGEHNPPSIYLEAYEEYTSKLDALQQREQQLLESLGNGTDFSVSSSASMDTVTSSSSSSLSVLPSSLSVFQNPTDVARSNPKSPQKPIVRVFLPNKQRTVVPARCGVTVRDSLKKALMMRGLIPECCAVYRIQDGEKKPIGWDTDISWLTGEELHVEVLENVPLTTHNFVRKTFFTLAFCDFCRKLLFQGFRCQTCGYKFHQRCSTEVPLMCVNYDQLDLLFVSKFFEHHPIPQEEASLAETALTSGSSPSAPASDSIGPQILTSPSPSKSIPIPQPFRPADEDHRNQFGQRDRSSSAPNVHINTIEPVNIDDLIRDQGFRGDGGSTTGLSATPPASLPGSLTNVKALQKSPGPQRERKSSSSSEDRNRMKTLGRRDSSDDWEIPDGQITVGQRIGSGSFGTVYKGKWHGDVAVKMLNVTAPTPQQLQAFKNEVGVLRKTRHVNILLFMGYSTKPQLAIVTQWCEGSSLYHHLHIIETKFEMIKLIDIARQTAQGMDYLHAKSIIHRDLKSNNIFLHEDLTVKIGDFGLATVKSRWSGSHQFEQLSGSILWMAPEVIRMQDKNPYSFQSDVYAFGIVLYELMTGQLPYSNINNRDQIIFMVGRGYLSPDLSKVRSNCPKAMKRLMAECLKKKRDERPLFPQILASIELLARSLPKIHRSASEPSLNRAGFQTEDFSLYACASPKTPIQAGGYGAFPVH
T4 sequence (O94804 whole entry): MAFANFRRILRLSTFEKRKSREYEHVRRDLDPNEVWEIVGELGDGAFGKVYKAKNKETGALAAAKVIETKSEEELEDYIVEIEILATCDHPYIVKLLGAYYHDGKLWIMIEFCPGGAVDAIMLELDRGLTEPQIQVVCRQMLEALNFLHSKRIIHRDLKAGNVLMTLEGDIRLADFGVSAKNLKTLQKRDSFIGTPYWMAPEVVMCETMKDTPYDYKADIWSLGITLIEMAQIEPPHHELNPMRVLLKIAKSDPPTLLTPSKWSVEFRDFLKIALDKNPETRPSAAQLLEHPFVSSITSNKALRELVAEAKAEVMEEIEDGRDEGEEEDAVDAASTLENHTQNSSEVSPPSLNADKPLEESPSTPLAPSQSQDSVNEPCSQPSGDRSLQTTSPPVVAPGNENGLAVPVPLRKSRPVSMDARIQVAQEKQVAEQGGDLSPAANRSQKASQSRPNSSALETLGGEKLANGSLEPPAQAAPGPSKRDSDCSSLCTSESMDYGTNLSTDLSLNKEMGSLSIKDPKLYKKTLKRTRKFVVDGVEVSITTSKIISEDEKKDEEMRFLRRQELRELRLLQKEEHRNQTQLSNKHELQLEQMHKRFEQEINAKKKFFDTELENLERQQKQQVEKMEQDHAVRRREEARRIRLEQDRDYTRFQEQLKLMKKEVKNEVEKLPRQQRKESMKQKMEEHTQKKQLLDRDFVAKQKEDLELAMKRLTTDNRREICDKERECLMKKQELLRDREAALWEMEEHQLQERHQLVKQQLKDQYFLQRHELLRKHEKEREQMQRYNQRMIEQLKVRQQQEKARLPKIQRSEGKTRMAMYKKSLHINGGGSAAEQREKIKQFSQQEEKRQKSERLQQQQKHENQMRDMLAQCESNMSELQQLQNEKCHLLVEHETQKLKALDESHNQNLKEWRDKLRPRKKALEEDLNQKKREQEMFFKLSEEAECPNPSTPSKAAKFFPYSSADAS

| Compound | ΔTm at 10 µM (BRAFA) | ΔTm at 10 µM (PHKG2A) | ΔTm at 10 µM (GAKA) | ΔTm at 10 µM (STK10A) |
| --- | --- | --- | --- | --- |
| CNC(=O)c1ccccc1Nc1nsnc(Nc2cccc(CS(C)(=O)=O)c2)c1=O [Compound 4, N-Methyl-2-([5-({3-[(methylsulfonyl)methyl]phenyl}amino)-4-oxo-4H-1,2,6-thiadiazin-3-yl]-amino}-benzamide] | 0.1 °C | 0.2 °C | -0.4 °C | 0.2 °C |
| CNC(=O)c1ccccc1Nc1nsnc(Nc2ccc(N3CCOCC3)cc2)c1=O [Compound 5, N-Methyl-2-({5-[(4-morpholinophenyl)amino]-4-oxo-4H-1,2,6-thiadiazin-3-yl}amino)benzamide] | 0.4 °C | 0.2 °C | -0.4 °C | -0.4 °C |
| Cc1ccc(Nc2nsnc(Nc3ccc(C(N)=O)cc3)c2=O)cc1O [Compound 2, 4-({5-[(3-Hydroxy-4-methylphenyl)amino]-4-oxo-4H-1,2,6-thiadiazin-3-yl}amino)benzamide] | 0.2 °C | 2.4 °C | 1.4 °C | 0.9 °C |
| Cc1ccc(Nc2nsnc(Nc3ccc4c(c3)CS(=O)(=O)C4)c2=O)cc1O [Compound 3, 3-[(2,2-Dioxido-1,3-dihydrobenzo[c]thiophen-5-yl)amino]-5-[(3-hydroxy-4-methylphenyl)amino]-4H-1,2,6-thiadiazin-4-one] | 0.7 °C | 1.6 °C | 0 °C | 2.2 °C |
| Cc1ccc(Nc2nsnc(Nc3cccc(C(N)=O)c3)c2=O)cc1O [Compound 1, 3-({5-[(3-Hydroxy-4-methylphenyl)amino]-4-oxo-4H-1,2,6-thiadiazin-3-yl}amino)benzamide] | -0.1 °C | 0.7 °C | -0.3 °C | 0.5 °C |
